What all share (format): tissue-based
In assay [1] the target is T1, Potassium-transporting ATPase (Sus scrofa) (UniProt P18434+P19156). Put plainly: The compound was tested for its inhibitory activity against H+/K+ ATPase by using hog stomach membrane fractions at 10 uM.
For assay [2], the target named is T1, Potassium-transporting ATPase (Sus scrofa). Description: The compound was tested for its inhibitory activity against H+/K+ ATPase by using hog stomach membrane fractions at 4 uM.
Assay [3] concerns the target Potassium-transporting ATPase (Sus scrofa, UniProt P19156). Description: The compound was tested for its inhibitory activity against H+/K+ ATPase by using hog stomach membrane fractions (pH 6.4).
For assay [4], the target named is T1, Potassium-transporting ATPase (Sus scrofa). Description: The compound was tested for its inhibitory activity against H+/K+ ATPase by using hog stomach membrane fractions (pH 6.4) at 4 uM.
Assay [5] has the same target. Put plainly: The compound was tested for its inhibitory activity against H+/K+ ATPase by using hog stomach membrane fractions at 8 uM.

The term inhibition denotes the drop in the measured response relative to a control, in per cent. Lower therefore signals a response near the control. The IC50 is the point on the concentration scale where inhibition reaches its midpoint.

Potassium-transporting ATPase, sequence (P18434 whole entry): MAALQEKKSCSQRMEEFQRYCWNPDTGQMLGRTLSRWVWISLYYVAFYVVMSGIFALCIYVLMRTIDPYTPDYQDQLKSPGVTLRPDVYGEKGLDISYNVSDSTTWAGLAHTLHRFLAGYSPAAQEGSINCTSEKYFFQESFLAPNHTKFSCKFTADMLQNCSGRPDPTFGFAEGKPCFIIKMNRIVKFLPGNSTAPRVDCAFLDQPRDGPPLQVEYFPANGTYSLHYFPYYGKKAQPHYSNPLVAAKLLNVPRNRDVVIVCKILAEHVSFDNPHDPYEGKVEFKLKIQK
Potassium-transporting ATPase, sequence (P19156 whole entry): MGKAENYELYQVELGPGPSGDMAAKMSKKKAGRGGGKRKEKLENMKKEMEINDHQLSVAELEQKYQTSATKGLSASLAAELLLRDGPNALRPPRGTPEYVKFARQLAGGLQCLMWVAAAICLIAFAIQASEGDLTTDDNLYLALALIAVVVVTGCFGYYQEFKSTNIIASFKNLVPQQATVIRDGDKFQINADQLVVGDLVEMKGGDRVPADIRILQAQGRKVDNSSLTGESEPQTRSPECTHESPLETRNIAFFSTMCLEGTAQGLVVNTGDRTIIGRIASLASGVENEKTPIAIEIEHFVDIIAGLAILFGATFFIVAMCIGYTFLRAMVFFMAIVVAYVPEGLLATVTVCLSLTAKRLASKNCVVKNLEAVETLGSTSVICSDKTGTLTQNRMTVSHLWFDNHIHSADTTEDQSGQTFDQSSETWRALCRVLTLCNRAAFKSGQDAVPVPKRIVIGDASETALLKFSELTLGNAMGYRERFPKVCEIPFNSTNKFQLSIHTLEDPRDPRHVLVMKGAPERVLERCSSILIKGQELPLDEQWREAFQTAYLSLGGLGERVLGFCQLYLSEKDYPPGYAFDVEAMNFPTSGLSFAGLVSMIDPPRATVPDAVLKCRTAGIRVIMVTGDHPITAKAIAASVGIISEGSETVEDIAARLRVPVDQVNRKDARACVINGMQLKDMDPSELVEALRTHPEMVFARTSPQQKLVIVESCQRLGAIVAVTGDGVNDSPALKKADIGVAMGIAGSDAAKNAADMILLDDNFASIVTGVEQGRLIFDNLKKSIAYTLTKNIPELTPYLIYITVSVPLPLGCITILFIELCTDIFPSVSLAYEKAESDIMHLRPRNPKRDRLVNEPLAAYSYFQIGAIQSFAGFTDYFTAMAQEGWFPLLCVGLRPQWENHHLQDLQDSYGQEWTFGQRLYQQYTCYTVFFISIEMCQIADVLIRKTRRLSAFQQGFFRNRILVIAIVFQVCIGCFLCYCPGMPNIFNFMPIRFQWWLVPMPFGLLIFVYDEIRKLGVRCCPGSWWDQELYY

In assay [1], `Cc1cnc(C(CO)Cc2cccc3ccccc23)cc1Oc1ccccc1` (stereo unspecified) came in with an inhibition of 36%.
Compound `Cc1cnc(C(CO)Cc2cccc3ccccc23)cc1OCc1ccccn1` (stereo unspecified) yielded an inhibition in assay [2] of 21%.
For `Cc1cnc(C(CO)Cc2cccc3ccccc23)cc1OCC1CCCCC1` (stereo unspecified), in assay [3], the IC50 stood at 3100 nM.
Same read-out and setting: the result for `COc1ccccc1COc1cc(/C(=C\c2cccc3ccccc23)CO)ncc1C` reads 1700 nM.
`CC#CCOc1cc(C(CO)Cc2cccc3ccccc23)ncc1C` (stereo unspecified): the inhibition in assay [4] stood at 22%.
`Cc1cnc(C(CO)Cc2cccc3ccccc23)cc1OCCOc1ccccc1` (stereo unspecified): the inhibition in assay [5] is 27%.
On to `CC(C)=CCOc1cc(C(CO)Cc2cccc3ccccc23)ncc1C` (stereo unspecified), for which the IC50 in assay [3] came out at 3000 nM.
Same read-out and setting: the result for `Cc1cnc(C(CO)Cc2cccc3ccccc23)cc1OC1CCCCC1` (stereo unspecified) reads 500 nM; that for `Cc1cnc(C(CO)Cc2cccc3ccccc23)cc1OCc1ccccc1O` (stereo unspecified), 1800 nM.
The same measure, in the same setting: the result for `Cc1cnc(C(CO)Cc2cccc3ccccc23)cc1OCC(C)(C)C` (stereo unspecified) reads 600 nM.
In assay [3], `Cc1cnc(/C(=C\c2cccc3ccccc23)CO)cc1OCc1ccccc1O` displayed a 50% inhibitory concentration (IC50) of 900 nM.
